Patent US10071095B2, “1,2,4-triazolo [4,3-A] pyridine derivatives and their use for the treatment of neurological and psychiatric disorders” (JANSSEN PHARMACEUTICALS, INC., priority 2009, dated 2018)
Like-named read-outs stand apart in the source and are kept apart here.

What was measured:
Type in all cases: in vivo
REM sleep in rats = assay: Sleep wake electroencephalography (SW-EEG) in rats
Text: Sleep Wake Electroencephalography (SW-EEG) in Rats
SW-EEG analyses are a highly sensitive read-out of a compound's central functional activity that may provide additional insight in the potential therapeutic application (i.e. via drug classification fingerprinting). […] Internal efforts have confirmed that this effect is mGlu2 receptor-mediated, i.e. is absent in mGlu2 KO mice. Sleep abnormalities are often associated with CNS disorders; as such, the potential use of mGlu2 modulators could also have benefit in the treatment of CNS disorders in which (REM) sleep aberrations are manifested. More specifically, the combination of a persistent reduction in REM occurrence and an increase in REM latency is one of the key features of the typical SW architecture fingerprint of most clinically active antidepressants.
We investigated the effects of oral administration of compounds according to the invention on SW organization in rats. The mGlu2/3 receptor agonists LY404039 and LY354740 were also evaluated to allow comparison.

[1] = system: memantine-induced 2DG uptake in mouse brain (hippocampus); assay: Reversal of memantine-induced brain activation ([14C]2DG uptake) in mice
Experimental: Reversal of Memantine-Induced Brain Activation in Mice
NMDA receptor hypofunction is hypothesized to be involved in schizophrenia.
Autoradiographic assessment of radiolabeled [^14C]-2-deoxyglucose ([^14C]2DG) uptake is commonly used to investigate brain activation. In humans, cerebral blood flow is increased in specific brain regions after administration of a subanaesthetic dose of ketamine.
Male mice (C57BL/6, weight 24-28 g, fasted overnight; n=10 animals per group) were treated with vehicle or test compound (s.c.) in randomized order (t=0 min). Memantine (20 mg/kg, s.c.) was injected 30 min later (t=30 min). At t=45 min, [^14C]2DG (0.16 μCi/g) was administered intraperitoneally (i.p.), followed by a 45 min uptake period. Animals were decapitated (t=90 min), plasma glucose levels measured, the brain removed, rapidly frozen and stored at −20° C. until sectioned. Brain sections were exposed together to a precalibrated [^14C]standard on film, which was developed after four days of exposure. Local tissue [^14C]concentration (nCi/mg tissue equivalent—TEQ—) in each region of interest was determined.
Data was analyzed statistically using a two-way ANOVA analysis followed by post-hoc tests (memantine response versus reversal by the compound). The results are shown in table 5 below, expressed as lowest active dose (L.A.D.) required to exert a statistically significant (p<0.05) reduction of 2DG uptake in the hippocampus compared to memantine response.

[2] = system: d-amphetamine-induced hyperlocomotion in male NMRI mice; assay: d-Amphetamine-induced hyperlocomotion in mice (video tracking)
Experimental: (§1) Motor Activity (Video Tracking)
(§2) Apparatus and General Procedure
On the day of experiments, the mice were brought into the procedural room. They were housed individually and allowed to acclimate for at least a half hour prior to testing. Although the studies were conducted during the light cycle (from 8:00 to 16:00 h), the procedure room was only sparsely lit (3 to 30 LUX) to provide better contrast for the video tracking. Local lighting was used for the injection procedures. During each trial, an individual mouse was placed in an open field arena (grey PVC cylinder with a height of 40 cm and a diameter of 22.5 cm). Each arena was placed on an infrared LED (8×8 LEDs)-lit box (white PVC squared box; 40×40 cm^2; height 12.5 cm). Each mouse was placed in the center of the arena and allowed to explore freely for 30 min. After each trial, the arena was cleaned with a wet and subsequently with a dry cleaning cloth. […] Animal behavior was recorded and analyzed using the Noldus Ethovision XT Video Tracking System (Version 3.1; Noldus, Wageningen, The Netherlands). The total distance traveled (cm) was calculated. […]
Test compound or solvent was administered at a pre-defined time before measurement (standard: 30 min) to male NMRI mice that were challenged with d-amphetamine (5 mg/kg, s.c.) 30 min before measurement. Activity was measured for a period of 30 min.

[3] = system: conditioned avoidance response in male Wiga Wistar rats; assay: Conditioned avoidance response (CAR) test in rats; conditions: for ED50: Rattus norvegicus, po, read-out: ED50 (mg/kg) CAR-Inh.
Text: Conditioned Avoidance Response (CAR) Test
The apparatus consisted of an inner box surrounded by an outer box. The inner box was composed of four walls of transparent, synthetic material (length×width×height: 30×30×30 cm), an open top, and a grid floor made of 15 pairs of iron bars (2 mm diameter; 6 mm inter-bar distance). Odd and even bars were connected with a source of alternative current (1.0 mA; Coulbourn Instruments Solid State Shocker/Distributor), which could be interrupted by a switch. The outer box was composed of the same material (length×width×height: 40×40×36 cm), also with an open top, with a distance of 5 cm between the inner and outer box on all sides. To decrease the amount of environmental stimuli, three walls of the outer box were made non-transparent. The front wall was left transparent to allow the necessary inspection of the animal during the test. The upper edge of the outer and inner box served as a target for the rats on which to jump with fore- and hind-paws, respectively.
Avoidance Conditioning and Selection of Animals
From their arrival in the laboratory on the experimental day, male Wiga Wistar rats (230±30 g) were housed in individual cages provided with bedding material.
Latency to avoidance was recorded. The median avoidance response obtained over the three experimental sessions for each rat were used for further calculations.

[4] = system: PCP-induced hyperlocomotion in male NMRI mice; assay: Phencyclidine (PCP)-induced hyperlocomotion in mice (video tracking)
Experimental: as §1, §2
On the day of experiments, the mice were brought into the procedural room. They were housed individually and allowed to acclimate for at least a half hour prior to testing. Although the studies were conducted during the light cycle (from 8:00 to 16:00 h), the procedure room was only sparsely lit (3 to 30 LUX) to provide better contrast for the video tracking. Local lighting was used for the injection procedures. During each trial, an individual mouse was placed in an open field arena (grey PVC cylinder with a height of 40 cm and a diameter of 22.5 cm). Each arena was placed on an infrared LED (8×8 LEDs)-lit box (white PVC squared box; 40×40 cm^2; height 12.5 cm). Each mouse was placed in the center of the arena and allowed to explore freely for 30 min. After each trial, the arena was cleaned with a wet and subsequently with a dry cleaning cloth. An infrared sensitive tube camera and a white light source (in arena: 4-7 LUX) were mounted to the ceiling above the observation chamber to record and input activity to a computer. Animal behavior was recorded and analyzed using the Noldus Ethovision XT Video Tracking System (Version 3.1; Noldus, Wageningen, The Netherlands). The total distance traveled (cm) was calculated. Data were then exported to data management systems for further analysis and reporting.
Phencyclidine (PCP)-Induced Hyperlocomotion in Mice
Test compound or solvent was administered at a pre-defined time before measurement (standard: 30 min) to male NMRI mice that were challenged with phencyclidine (PCP; 5 mg/kg, s.c.) 30 min before measurement. Activity was measured for a period of 30 min.

In the case of `N[C@@]1(C(=O)O)CC[C@H]2[C@H](C(=O)O)[C@H]21` [LY354740], the “lowest active dose, decrease in REM sleep” value (REM sleep in rats; acute dosing, s.c.) is reported as 3 mg/kg and the “effect of subchronic treatment on REM sleep effect (in words)” value (REM sleep in rats; once daily dosing for 7 days, 1, 3, 10 mg/kg, s.c.) is reported as “led to tolerance”.

For `N[C@@]1(C(=O)O)CS(=O)(=O)[C@H]2[C@H](C(=O)O)[C@H]21` [LY404039, reference compound], the “effect on REM sleep (in words)” value (REM sleep in rats; 3 mg/kg, p.o.) was “affect REM sleep” and the “effect on memantine-induced brain glucose metabolism / 2DG uptake (in words)” value ([1]; mouse brain, reference drugs) was “inhibited”.

In the case of `FC(F)(F)c1c(N2CCC(c3ccccc3)CC2)ccn2c(CC3CC3)nnc12` [compound 43, 3-(Cyclopropylmethyl)-7-(4-phenyl-1-piperidinyl)-8-(trifluoromethyl)-1,2,4-triazolo[4,3-a]pyridine], the “effect of subchronic treatment on REM sleep effect (in words)” value (REM sleep in rats; once daily dosing for 7 days, 3, 10 and 30 mg/kg, p.o.) is reported as “did not diminish the effects”, the “L.A.D. (lowest active dose for significant reduction of 2DG uptake in hippocampus vs memantine response)” value ([1]; mice C57BL/6, s.c., memantine 20 mg/kg s.c., p<0.05) is reported as ≤2.5 mg/kg, s.c and the ED50 ([2]; Mus musculus, sc, male NMRI mice, s.c., d-amphetamine 5 mg/kg s.c., criterion total distance <5500 counts, read-out: ED50, inhibition of amphetamine-induced hyperlocomotion) is reported as 37 mg/kg. For the same molecule, the “activity against d-amphetamine-induced hyperlocomotion in mice (in words)” value ([2]; mice) was “active”, the “inhibition of the conditioned avoidance response in rats (in words)” value [3] was “inhibited” and the ED50 ([3]; compound administered orally (*); a)/b) = estimated ED50 values) was 16.3 mg/kg. The ED50 ([3]; not marked * (not oral; injection per method); b) = estimated ED50 values (n = 3 per dose)) was 2.35 mg/kg, the ED50 ([4]; Mus musculus, read-out: Mice ED50 (mg/kg) PCP-Inh.) was 5.4 mg/kg and the “inhibition of PCP-induced hyperlocomotion in mice (in words)” value ([4]; mice) was “inhibited”.
